Data as given in ChEMBL document CHEMBL1201862, “PubChem BioAssay data set” (2004).
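How tested: cells in 96-well plates exposed to compound for 48 hours at five concentrations. GI50 marks 50% less growth.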 The source made the active and inactive calls. Cut-off read from the data, not from the text of the source: active = GI50 up to about 1.1 µM and inactive = higher.

Key:
Assay in all cases: NCI-60 cell line screen, 48 h
HOP-62 = tested on: HOP-62
K562 = tested on: K562
OVCAR-8 = tested on: OVCAR-8
EKVX = tested on: EKVX
CAKI-1 = tested on: CAKI-1
XF498 = tested on: XF498
IGROV-1 = tested on: IGROV-1
SK-OV-3 = tested on: SK-OV-3
SNB-78 = tested on: SNB-78
COLO 205 = tested on: COLO 205
RXF 393 = tested on: RXF 393
OVCAR-4 = tested on: OVCAR-4
OVCAR-3 = tested on: OVCAR-3
NCI-H522 = tested on: NCI-H522
SK-MEL-28 = tested on: SK-MEL-28
HCC 2998 = tested on: HCC 2998
OVCAR-5 = tested on: OVCAR-5
NCI-H23 = tested on: NCI-H23
SR = tested on: SR
SNB-75 = tested on: SNB-75
A549 = tested on: A549
NCI-H460 = tested on: NCI-H460
HCT-15 = tested on: HCT-15
786-0 = tested on: 786-0
M19-MEL = tested on: M19-MEL
SF-539 = tested on: SF-539
DMS-114 = tested on: DMS-114
CCRF-CEM = tested on: CCRF-CEM
SNB-19 = tested on: SNB-19
UACC-62 = tested on: UACC-62
SF-295 = tested on: SF-295
HT-29 = tested on: HT-29
DMS-273 = tested on: DMS-273
UO-31 = tested on: UO-31
ACHN = tested on: ACHN
LOX IMVI = tested on: LOX IMVI
DLD-1 = tested on: DLD-1
SF-268 = tested on: SF-268
SK-MEL-5 = tested on: SK-MEL-5
LXFL 529 = tested on: LXFL 529
Malme-3M = tested on: Malme-3M
KM12 = tested on: KM12
HCT-116 = tested on: HCT-116
M14 = tested on: M14
NCI-H226 = tested on: NCI-H226
TK-10 = tested on: TK-10
MOLT-4 = tested on: MOLT-4
SW-620 = tested on: SW-620
SN12C = tested on: SN12C
HOP-92 = tested on: HOP-92
SK-MEL-2 = tested on: SK-MEL-2
U-251 = tested on: U-251
HL-60 = tested on: HL-60
RPMI-8226 = tested on: RPMI-8226
A498 = tested on: A498
UACC-257 = tested on: UACC-257
KM-20L2 = tested on: KM-20L2

O=C(Nc1ccccc1-c1n[nH]c(S)nc1=O)C(F)(F)F
GI50 (HOP-62): > 100 µM (inactive)
GI50 (K562): > 100 µM (inactive)
GI50 (OVCAR-8): > 100 µM (inactive)
GI50 (EKVX): > 100 µM (inactive)
GI50 (CAKI-1): > 100 µM (inactive)
GI50 (XF498): > 100 µM (inactive)
GI50 (IGROV-1): > 100 µM (inactive)
GI50 (SK-OV-3): > 100 µM (inactive)
GI50 (SNB-78): > 100 µM (inactive)
GI50 (COLO 205): > 100 µM (inactive)
GI50 (RXF 393): > 100 µM (inactive)
GI50 (OVCAR-4): > 100 µM (inactive)
GI50 (OVCAR-3): > 100 µM (inactive)
GI50 (NCI-H522): 64.3 µM (inactive)
GI50 (SK-MEL-28): > 100 µM (inactive)
GI50 (HCC 2998): > 100 µM (inactive)
GI50 (OVCAR-5): > 100 µM (inactive)
GI50 (NCI-H23): > 100 µM (inactive)
GI50 (SR): > 100 µM (inactive)
GI50 (SNB-75): > 100 µM (inactive)
GI50 (A549): > 100 µM (inactive)
GI50 (NCI-H460): > 100 µM (inactive)
GI50 (HCT-15): > 100 µM
GI50 (786-0): > 100 µM (inactive)
GI50 (M19-MEL): > 100 µM (inactive)
GI50 (SF-539): > 100 µM (inactive)
GI50 (DMS-114): > 100 µM (inactive)
GI50 (CCRF-CEM): > 100 µM (inactive)
GI50 (SNB-19): > 100 µM (inactive)
GI50 (UACC-62): > 100 µM (inactive)
GI50 (SF-295): > 100 µM (inactive)
GI50 (HT-29): > 100 µM (inactive)
GI50 (DMS-273): > 100 µM (inactive)
GI50 (UO-31): > 100 µM (inactive)
GI50 (ACHN): > 100 µM (inactive)
GI50 (LOX IMVI): > 100 µM (inactive)
GI50 (DLD-1): > 100 µM (inactive)
GI50 (SF-268): > 100 µM (inactive)
GI50 (SK-MEL-5): > 100 µM (inactive)
GI50 (LXFL 529): > 100 µM (inactive)
GI50 (Malme-3M): > 100 µM (inactive)
GI50 (KM12): > 100 µM (inactive)
GI50 (HCT-116): > 100 µM (inactive)
GI50 (M14): > 100 µM (inactive)
GI50 (NCI-H226): > 100 µM (inactive)
GI50 (TK-10): > 100 µM (inactive)
GI50 (MOLT-4): > 100 µM (inactive)
GI50 (SW-620): > 100 µM (inactive)
GI50 (SN12C): > 100 µM (inactive)
GI50 (HOP-92): > 100 µM (inactive)
GI50 (SK-MEL-2): > 100 µM (inactive)
GI50 (U-251): > 100 µM (inactive)

Cc1ncc(CBr)c(CBr)c1O
GI50 (HOP-62): > 100 µM (inactive)
GI50 (K562): > 100 µM (inactive)
GI50 (HL-60): 60.8 µM (inactive)
GI50 (CAKI-1): > 100 µM (inactive)
GI50 (XF498): > 100 µM (inactive)
GI50 (IGROV-1): > 100 µM (inactive)
GI50 (SK-OV-3): > 100 µM (inactive)
GI50 (SNB-78): > 100 µM (inactive)
GI50 (COLO 205): > 100 µM (inactive)
GI50 (OVCAR-4): > 100 µM (inactive)
GI50 (NCI-H522): 55.3 µM (inactive)
GI50 (SK-MEL-28): > 100 µM (inactive)
GI50 (HCC 2998): > 100 µM (inactive)
GI50 (NCI-H23): > 100 µM (inactive)
GI50 (SR): > 100 µM (inactive)
GI50 (SNB-75): > 100 µM (inactive)
GI50 (786-0): > 100 µM (inactive)
GI50 (RPMI-8226): > 100 µM (inactive)
GI50 (M19-MEL): > 100 µM (inactive)
GI50 (SF-539): > 100 µM (inactive)
GI50 (DMS-114): > 100 µM (inactive)
GI50 (CCRF-CEM): 44.7 µM (inactive)
GI50 (UACC-62): > 100 µM (inactive)
GI50 (DMS-273): > 100 µM (inactive)
GI50 (UO-31): 89.1 µM (inactive)
GI50 (ACHN): > 100 µM (inactive)
GI50 (DLD-1): > 100 µM (inactive)
GI50 (SF-268): > 100 µM (inactive)
GI50 (A498): > 100 µM (inactive)
GI50 (LXFL 529): > 100 µM (inactive)
GI50 (Malme-3M): > 100 µM (inactive)
GI50 (HCT-116): > 100 µM (inactive)
GI50 (M14): > 100 µM (inactive)
GI50 (NCI-H226): > 100 µM (inactive)
GI50 (MOLT-4): > 100 µM (inactive)
GI50 (SN12C): > 100 µM (inactive)
GI50 (HOP-92): > 100 µM (inactive)
GI50 (SK-MEL-2): > 100 µM (inactive)

CC1(C)OC2C(CO)OC(N/C(=N/C#N)Oc3ccccc3)C2O1 (stereo not given)
GI50 (HOP-62): > 100 µM (inactive)
GI50 (K562): > 100 µM (inactive)
GI50 (OVCAR-8): > 100 µM (inactive)
GI50 (HL-60): > 100 µM (inactive)
GI50 (UACC-257): > 100 µM (inactive)
GI50 (EKVX): > 100 µM (inactive)
GI50 (XF498): > 100 µM (inactive)
GI50 (IGROV-1): > 100 µM (inactive)
GI50 (SK-OV-3): > 100 µM (inactive)
GI50 (SNB-78): > 100 µM (inactive)
GI50 (KM-20L2): > 100 µM (inactive)
GI50 (COLO 205): > 100 µM (inactive)
GI50 (RXF 393): > 100 µM (inactive)
GI50 (OVCAR-4): > 100 µM (inactive)
GI50 (OVCAR-3): > 100 µM (inactive)
GI50 (SK-MEL-28): > 100 µM (inactive)
GI50 (HCC 2998): > 100 µM (inactive)
GI50 (OVCAR-5): > 100 µM (inactive)
GI50 (NCI-H23): > 100 µM (inactive)
GI50 (SR): > 100 µM (inactive)
GI50 (SNB-75): 75.9 µM (inactive)
GI50 (A549): > 100 µM (inactive)
GI50 (NCI-H460): > 100 µM (inactive)
GI50 (HCT-15): > 100 µM
GI50 (786-0): > 10 µM (inactive)
GI50 (RPMI-8226): > 100 µM (inactive)
GI50 (M19-MEL): > 100 µM (inactive)
GI50 (SF-539): > 100 µM (inactive)
GI50 (DMS-114): > 100 µM (inactive)
GI50 (CCRF-CEM): > 100 µM (inactive)
GI50 (SNB-19): > 100 µM (inactive)
GI50 (UACC-62): > 100 µM (inactive)
GI50 (SF-295): > 100 µM (inactive)
GI50 (HT-29): > 100 µM (inactive)
GI50 (DMS-273): > 100 µM (inactive)
GI50 (UO-31): > 100 µM (inactive)
GI50 (ACHN): > 100 µM (inactive)
GI50 (LOX IMVI): > 100 µM (inactive)
GI50 (DLD-1): > 100 µM (inactive)
GI50 (SF-268): > 100 µM (inactive)
GI50 (SK-MEL-5): > 100 µM (inactive)
GI50 (LXFL 529): > 100 µM (inactive)
GI50 (KM12): > 100 µM (inactive)
GI50 (HCT-116): > 100 µM (inactive)
GI50 (M14): > 100 µM (inactive)
GI50 (NCI-H226): > 100 µM (inactive)
GI50 (TK-10): > 100 µM (inactive)
GI50 (MOLT-4): > 100 µM (inactive)
GI50 (SW-620): > 100 µM (inactive)
GI50 (SN12C): > 100 µM (inactive)
GI50 (U-251): > 100 µM (inactive)

C[C@]12CCC(=O)C=C1CC[C@@H]1C2CC[C@]2(C)Nc3[nH]ncc3CC12 (stereo not given in full)
GI50 (HOP-62): > 100 µM (inactive)
GI50 (K562): > 100 µM (inactive)
GI50 (OVCAR-8): > 100 µM (inactive)
GI50 (HL-60): > 100 µM (inactive)
GI50 (UACC-257): > 100 µM (inactive)
GI50 (EKVX): 77.4 µM (inactive)
GI50 (CAKI-1): > 100 µM (inactive)
GI50 (XF498): > 100 µM (inactive)
GI50 (IGROV-1): > 100 µM (inactive)
GI50 (SK-OV-3): > 100 µM (inactive)
GI50 (SNB-78): > 100 µM (inactive)
GI50 (KM-20L2): > 100 µM (inactive)
GI50 (RXF 393): > 100 µM (inactive)
GI50 (OVCAR-4): > 100 µM (inactive)
GI50 (OVCAR-3): > 100 µM (inactive)
GI50 (SK-MEL-28): > 100 µM (inactive)
GI50 (HCC 2998): > 100 µM (inactive)
GI50 (OVCAR-5): > 100 µM (inactive)
GI50 (NCI-H23): > 100 µM (inactive)
GI50 (SNB-75): 30.3 µM (inactive)
GI50 (A549): > 100 µM (inactive)
GI50 (NCI-H460): > 100 µM (inactive)
GI50 (HCT-15): > 100 µM
GI50 (786-0): > 100 µM (inactive)
GI50 (RPMI-8226): > 100 µM (inactive)
GI50 (M19-MEL): > 100 µM (inactive)
GI50 (SF-539): > 100 µM (inactive)
GI50 (DMS-114): > 100 µM (inactive)
GI50 (CCRF-CEM): > 100 µM (inactive)
GI50 (UACC-62): > 100 µM (inactive)
GI50 (SF-295): 94.2 µM (inactive)
GI50 (HT-29): > 100 µM (inactive)
GI50 (DMS-273): > 100 µM (inactive)
GI50 (UO-31): > 100 µM (inactive)
GI50 (ACHN): > 100 µM (inactive)
GI50 (DLD-1): > 100 µM (inactive)
GI50 (SK-MEL-5): > 100 µM (inactive)
GI50 (A498): > 100 µM (inactive)
GI50 (LXFL 529): > 100 µM (inactive)
GI50 (Malme-3M): > 100 µM (inactive)
GI50 (KM12): > 100 µM (inactive)
GI50 (HCT-116): > 100 µM (inactive)
GI50 (M14): > 100 µM (inactive)
GI50 (NCI-H226): 60.3 µM (inactive)
GI50 (TK-10): > 100 µM (inactive)
GI50 (MOLT-4): > 100 µM (inactive)
GI50 (SW-620): > 100 µM (inactive)
GI50 (SK-MEL-2): > 100 µM (inactive)
GI50 (U-251): > 100 µM (inactive)
